From patent US5916925A, “Pharmaceutical composition for treatment of dementia” (Takeda Chemical Industries, Ltd., priority 1996, dated 1999)
“And” between values parts separate entries of the source, which are not always exact repeats. Equal values may be shown once. Where a name gives a salt, the structure may show the parent alone. Read-outs that look alike come from different tables or passages of the source.

Legend:
patients = conditions: cited from earlier work
[1] = test system: water maze learning deficit in old rats; test: Morris water maze learning in old rats; type: in vivo, rats of the Fischer 344 strain; conditions: for average latency to find the platform for all trials, vs control group / water maze learning deficit, overall: idebenone 3 mg/kg, Compound A 0.3 mg/kg, oral, or both
Experimental: (§1) The old rats were divided into the following four groups.
(§2) Passive avoidance learning tests were started on day 14 of treatment, and Morris water maze learning tests on day 20 of treatment.
In pretraining which was performed for swimming training and motivation for escaping from water, four trials were performed using a water bath, 80 cm in diameter, in a condition that the platform was visible. From the following day, using a water bath, 120 cm in diameter, learning trials, one session (four trials) per day, were performed with the platform being placed below the water.

[2] = test system: patients with senile dementia of Alzheimer's type; test: double-blind placebo controlled multicenter study, efficacy parameters (ADAS, CGI, NOSGER, SKT); type: in vivo, human
Experimental: (§3) In patients with senile dementia of Alzheimer's type, a double-blind placebo controlled multicenter comparative study was conducted under the conditions shown below.
(§4) (1) Placebo administration
(§5) Oral administration just after every meal

[3] = test system: patients with senile dementia of Alzheimer's type; test: clinical study, safety assessment and dropouts; type: in vivo, human; conditions: for subjects dropped out: subjects in this study (groups not separated)
Experimental: as §3
(§6) 451 patients with senile dementia of Alzheimer's type (154 males, 297 females)
as §4
Group 3 (placebo administration), 153 patients (54 males, 99 females; average age 70 years)
as §5
(§7) Clinical laboratory values

[4] = test system: passive avoidance learning deficit in old rats; test: passive avoidance learning in old rats; type: in vivo, rats of the Fischer 344 strain; conditions: idebenone 3 mg/kg, Compound A 0.3 mg/kg, oral, or both; for retention trials, learning deficit: 24 hours after shock loading
Experimental: as §1, §2
The passive avoidance learning test was performed using a chamber consisting of light and dark compartments. […] After a rat moved to the dark compartment, the rat was kept there for about 10 seconds with the door closed. One to two hours after such habituation trials, acquisition trials were performed.
In acquisition trials, after a rat moved to the dark compartment, a foot shock (0.4 mA, 3 seconds) was given through the grid floor. Retention trials were performed 24 hours after acquisition trials.
In each trial, the latency from opening of the slide door till the animal moved to the dark compartment (step-through latency) was measured.

[5] = test system: patients with senile dementia of Alzheimer's type; conditions: 90 mg per day per adult; cited from earlier work
GOT = test: hepatic clinical laboratory value GOT in patients; type: in vivo, human; conditions: for GOT Level: single patients
Experimental: as §3, §6, §4, §5, §7

GPT = test: hepatic clinical laboratory value GPT in patients; type: in vivo, human; conditions: for GPT Level: single patients
Experimental: as §3, §6, §4, §5, §7

[6] = 90 mg, 120 mg 3-times-a-day and placebo
[7] = 6 Months of Administration, 90 mg 3 times daily
[8] = 6 Months of Administration, 120 mg 3 times daily
[9] = 270 or 360 mg per day, 6 months, vs placebo
[10] = Pre-administration (baseline), 90 mg 3 times daily group
[11] = Pre-administration (baseline), 120 mg 3 times daily group

Nc1c2c(nc3ccccc13)CCCC2 [tacrine]
patients who withdrew from the treatment (patients; 30-week administration of tacrine): 74%
subjects dropped out (patients; high-dose tacrine group, by 30 weeks): 74%
subjects dropped out (patients; low-dose tacrine group, until final administration by 30 weeks): 59%
subjects dropped out (patients; moderate-dose tacrine group, by 30 weeks): 71%
dropouts or discontinuations due to adverse reactions (patients; tacrine, study period): a large number of dropouts or discontinuations occurred due to adverse reactions
adverse effects on long-term administration (patients; tacrine): hepatic toxicity

COC1=C(OC)C(=O)C(CCCCCCCCCCO)=C(C)C1=O [idebenone, 6-(10-hydroxydecyl) -2,3-dimethoxy-5-methyl-1,4-benzoquinone]
average latency to find the platform for all trials, vs control group [1]: did not show significant shortening of average latency compared with the control group
water maze learning deficit, overall [1]: did not improve water maze learning deficit in old rats
water maze learning deficit (latency to find the platform) ([1]; latter period of training, idebenone 3 mg/kg oral): slight tendency toward improvement in water maze learning deficit
ADAS Sum Score, relief compared with placebo ([2]; 90 mg 3-times-a-day, 6 months): significant relief
ADAS Sum Score, relief compared with placebo ([2]; 90 mg 3-times-a-day, 12 months): significant relief
ADAS Sum Score, dose dependence of effect ([2]; 90 mg and 120 mg 3-times-a-day, 6 and 12 months): dose dependent
ADAS Cognitive Score, differences among groups [2, 6]: significant differences among the three groups were noted, with dose dependency
CGI Global Improvement, differences among groups [2, 6]: significant differences among the three groups were noted, with dose dependency
CGI Severity of Disease, differences among groups [2, 6]: significant differences among the three groups were noted, with dose dependency
NOSGER IADL, differences among groups [2, 6]: significant differences among the three groups were noted, with dose dependency
NOSGER Sum Score, differences among groups [2, 6]: significant differences among the three groups were noted, with dose dependency
SKT, differences among groups [2, 6]: significant differences among the three groups were noted, with dose dependency
ADAS Sum Score, relief compared with placebo ([2]; 120 mg 3-times-a-day, 6 months): significant relief
ADAS Sum Score, relief compared with placebo ([2]; 120 mg 3-times-a-day, 12 months): significant relief
effect in comparison with published clinical data on tacrine ([2]; 270 mg (90 mg, 3-times-a-day)): better effects
effect in comparison with published clinical data on tacrine ([2]; 360 mg (120 mg, 3-times-a-day)): better effects
magnitude of effect, irrespective of assessment method ([2]; 360 mg idebenone administration group): marked effect
symptom progression ([2]; FIGS. 1 to 7): symptom progression was surely suppressed
symptom-relieving and symptom progression-suppressing effects, 12 months vs 6 months ([2]; period exceeding 6 months): greater symptom-relieving and symptom progression-suppressing effects are noted at 12 months than at 6 months
incidence and severity of accompanying symptoms ([3]; 90 mg and 120 mg 3-times-a-day vs placebo): No differences were noted among the three groups
subjects dropped out ([3]; by 6 months): 9%
subjects dropped out ([3]; by 12 months): about 15%
elevation of clinical laboratory values (GOT and GPT) ([3]; idebenone administration groups): very low
major objective and subjective symptoms ([3]; three groups together): vertigo, anorexia, sleep disturbance and arthralgia
retention trials, learning deficit [4]: tended to show improvements in learning deficit in old rats but the effect was not significant
passive avoidance learning deficit, overall [4]: did not improve passive avoidance learning deficit in old rats
efficacy in senile dementia of Alzheimer's type [5]: effective
GOT Level (GOT; [7]): 45 U/L and 38 U/L and 60 U/L and 86 U/L and 49 U/L and 32 U/L and 47 U/L and 26 U/L and 29 U/L
GOT Level (GOT; [8]): 41 U/L and 27 U/L and 28 U/L and 34 U/L and 37 U/L and 23 U/L and 131 U/L
change in GOT level (GOT; [9]): little change in GPT level and GOT level
GOT Level (GOT; [10]): 19 U/L and 27 U/L and 33 U/L and 32 U/L and 15 U/L and 29 U/L and 13 U/L and 22 U/L
GOT Level (GOT; [11]): 23 U/L and 24 U/L and 29 U/L and 21 U/L and 25 U/L
GPT Level (GPT; [7]): 61 U/L and 54 U/L and 34 U/L and 43 U/L and 26 U/L and 37 U/L and 35 U/L and 50 U/L
GPT Level (GPT; [8]): 26 U/L and 39 U/L and 43 U/L and 55 U/L and 25 U/L and 38 U/L and 60 U/L
change in GPT level (GPT; [9]): little change in GPT level and GOT level
GPT Level (GPT; [10]): 25 U/L and 34 U/L and 36 U/L and 63 U/L and 9 U/L and 14 U/L and 29 U/L and 33 U/L
GPT Level (GPT; [11]): 22 U/L and 14 U/L and 28 U/L and 29 U/L and 37 U/L and 31 U/L

O=C(CCC1CCN(Cc2ccccc2)CC1)c1ccc2c(c1)NCCCC2 [Compound A, 8-[1-oxo-3-(phenylmetyl)piperidin-4-yl]propyl]-2,3,4,5-tetrahydro-1H-1-benzazepine fumarate]
water maze learning (latency to find the platform) ([1]; day 2 of experiment): significant improvement
water maze learning (latency to find the platform) ([1]; day 3 of experiment): did not differ from the control group
average latency to find the platform for all trials, vs control group [1]: did not show significant shortening of average latency compared with the control group
water maze learning deficit, overall [1]: did not improve water maze learning deficit in old rats
retention trials, learning deficit [4]: tended to show improvements in learning deficit in old rats but the effect was not significant
passive avoidance learning deficit, overall [4]: did not improve passive avoidance learning deficit in old rats
